Assay results from ChEMBL document CHEMBL1287767, “Experimental solubility profiling of marketed CNS drugs, exploring solubility limit of CNS discovery candidate” (Bioorg Med Chem Lett, 2010).
≈ marks a conversion by molar mass, not a printed value.

What was measured:
[1] = Solubility of the compound in 0.1 M phosphate buffer at 600 uM at pH 7.4 after 24 hrs by LC/MS/MS analysis; details: for solubility at 24 h, 600 µM: pH 7.4
[2] = Solubility of the compound in water; type: physicochemical
[3] = Solubility of the compound at pH 7.4; type: physicochemical; details: buffer
[4] = Solubility of the compound in water at pH 7; type: physicochemical
[5] = Solubility of the compound in water at pH 7.4; type: physicochemical
[6] = Solubility of the compound in PBS at pH 7.4; type: physicochemical
[7] = Solubility of the compound in Mcllvaine buffer at pH 7.4; type: physicochemical; details: McIlvaine buffer
[8] = Solubility of the compound at pH 7.95; type: physicochemical; details: buffer
[9] = Solubility of the compound; type: physicochemical

Structure (SMILES) | solubility at 24 h, 600 µM ([1]; 0.1 M phosphate buffer) [µM] | further results
CNS(=O)(=O)CCc1ccc2[nH]cc(C3CCN(C)CC3)c2c1 | > 500 | –
CNS(=O)(=O)Cc1ccc2[nH]cc(CCN(C)C)c2c1 | > 500 | –
CC[C@@H](C(N)=O)N1CCCC1=O | > 500 | solubility [2]: 1000 mg/mL
CN1CCC[C@@H]1Cc1c[nH]c2ccc(CCS(=O)(=O)c3ccccc3)cc12 | > 500 | –
CCN(CC)C(=O)C1(c2ccccc2)CC1CN (centres undefined) | > 500 | –
COc1ccc(C(=O)N2CCCC2=O)cc1 | 500 (≈ 110 µg/mL) | –
CCCN(CCC)C(=O)Cc1c(-c2ccc(Cl)cc2)nc2ccc(Cl)cn12 [ALPIDEM] | 0.75 (≈ 0.303 µg/mL) | solubility [3]: 0.1 µM
Cc1nnc2n1-c1ccc(Cl)cc1C(c1ccccc1)=NC2 [ALPRAZOLAM] | 213 (≈ 65.8 µg/mL) | solubility [4]: 0.04 mg/mL (≈ 130 µM)
CCN1CCCC1CNC(=O)c1cc(S(=O)(=O)CC)c(N)cc1OC (centres undefined) [AMISULPRIDE] | > 500 | –
CC(N)Cc1ccccc1 (centres undefined) [AMPHETAMINE] | > 500 | –
O=C1CCc2ccc(OCCCCN3CCN(c4cccc(Cl)c4Cl)CC3)cc2N1 [ARIPIPRAZOLE] | 1.03 (≈ 0.462 µg/mL) | –
CNCC[C@@H](Oc1ccccc1C)c1ccccc1 [ATOMOXETINE] | > 500 | –
O=C1CN=C(c2ccccn2)c2cc(Br)ccc2N1 [BROMAZEPAM] | 334 (≈ 106 µg/mL) | –
CCCCN1CCCCC1C(=O)Nc1c(C)cccc1C (centres undefined) [BUPIVACAINE] | 352 (≈ 102 µg/mL) | solubility [5]: 0.42 mg/mL (≈ 1460 µM)
CC(NC(C)(C)C)C(=O)c1cccc(Cl)c1 (centres undefined) [BUPROPION] | 328 (≈ 78.6 µg/mL) | solubility ([6]; PBS, read-out: solubility): 10 mg/mL (≈ 41700 µM)
O=C1CC2(CCCC2)CC(=O)N1CCCCN1CCN(c2ncccn2)CC1 [BUSPIRONE] | > 500 | –
Oc1ccc2c(c1)[C@@]13CCCC[C@@]1(O)[C@@H](C2)N(CC1CCC1)CC3 [BUTORPHANOL] | > 500 | –
NC(=O)N1c2ccccc2C=Cc2ccccc21 [CARBAMAZEPINE] | > 490 | –
C[C@@](Cc1ccc(O)c(O)c1)(NN)C(=O)O.O [CARBIDOPA] | > 500 | –
CN(C)CCCC1(c2ccc(F)cc2)OCc2cc(C#N)ccc21 (centres undefined) [CITALOPRAM] | > 500 | –
O=C1CN=C(c2ccccc2Cl)c2cc([N+](=O)[O-])ccc2N1 [CLONAZEPAM] | – | solubility at 24 h, 600 µM ([1]; buffer): 30.2 µM (≈ 9.53 µg/mL); solubility [2]: < 0.1 mg/mL

Structure (SMILES) | solubility at 24 h, 600 µM ([1]; 0.1 M phosphate buffer) [µM] | further results
O=C(O)C1N=C(c2ccccc2)c2cc(Cl)ccc2NC1=O (centres undefined) [CLORAZEPIC ACID] | > 495 | –
CN1CCN(C2=Nc3cc(Cl)ccc3Nc3ccccc32)CC1 [CLOZAPINE] | > 420 | –
CCN[C@@H](C)Cc1cccc(C(F)(F)F)c1 [DEXFENFLURAMINE] | 500 (≈ 116 µg/mL) | –
CN1C[C@H](C(=O)N[C@]2(C)O[C@@]3(O)[C@@H]4CCCN4C(=O)[C@H](Cc4ccccc4)N3C2=O)C[C@@H]2c3cccc4[nH]cc(c34)C[C@H]21 [DIHYDROERGOTAMINE] | 37 (≈ 21.6 µg/mL) | –
O=C(O[C@@H]1C[C@@H]2C[C@H]3C[C@H](C1)N2CC3=O)c1c[nH]c2ccccc12 [DOLASETRON] | 195 (≈ 63.3 µg/mL) | –
CCCCCc1cc(O)c2c(c1)OC(C)(C)[C@@H]1CCC(C)=C[C@@H]21 [DRONABINOL] | > 500 | –
CNCC[C@H](Oc1cccc2ccccc12)c1cccs1 [DULOXETINE] | – | solubility at 24 h, 600 µM ([1]; buffer): > 500 µM
CN(C)CCC[C@@]1(c2ccc(F)cc2)OCc2cc(C#N)ccc21 [ESCITALOPRAM] | > 500 | –
CCc1cc2c(s1)-n1c(C)nnc1CN=C2c1ccccc1Cl [ETIZOLAM] | > 480 | –
NC(=O)OCC(COC(N)=O)c1ccccc1 [FELBAMATE] | > 500 | –
CN1C(=O)CN=C(c2ccccc2F)c2cc([N+](=O)[O-])ccc21 [FLUNITRAZEPAM] | 54 (≈ 16.9 µg/mL) | –
CCOC(=O)Nc1ccc(NCc2ccc(F)cc2)nc1N [FLUPIRTINE] | > 500 | –
COCCCC/C(=N\OCCN)c1ccc(C(F)(F)F)cc1 [FLUVOXAMINE] | > 500 | –
NCC1(CC(=O)O)CCCCC1 [GABAPENTIN] | > 500 | solubility [3]: 0.441 mg/mL
CN1C2CCCC1CC(NC(=O)c1nn(C)c3ccccc13)C2 (centres undefined) [GRANISETRON] | > 500 | –
CC(C)Cc1ccc(C(C)C(=O)O)cc1 (centres undefined) [IBUPROFEN] | – | solubility at 24 h, 600 µM ([1]; buffer): > 500 µM; solubility ([6]; buffer): 6.02 mg/mL (≈ 29200 µM)
COC1=C(OC)C(=O)C(CCCCCCCCCCO)=C(C)C1=O [IDEBENONE] | 16 (≈ 5.42 µg/mL) | solubility [2]: 23.6 µM
O=C(c1ccccc1)c1ccc2n1CCC2C(=O)O (centres undefined) [KETOROLAC] | > 459 | –
Nc1nnc(-c2cccc(Cl)c2Cl)c(N)n1 [LAMOTRIGINE] | 307 (≈ 78.6 µg/mL) | solubility [7]: 0.00048 mg/mL (≈ 1.87 µM)
OC[C@@H](O)CN1CCN(c2ccccc2)CC1 [LEVODROPROPIZINE] | > 500 | –
O=C1Nc2ccc(Cl)cc2C(c2ccccc2Cl)=NC1O (centres undefined) [LORAZEPAM] | – | solubility at 24 h, 600 µM ([1]; buffer): 24 µM (≈ 7.71 µg/mL); solubility [2]: 0.08 mg/mL

Structure (SMILES) | solubility at 24 h, 600 µM ([1]; 0.1 M phosphate buffer) [µM] | further results
CCC1(c2cccc(O)c2)CCCCN(C)C1 (centres undefined) [MEPTAZINOL] | > 500 | –
COCC1CN=C(c2ccccc2Cl)c2cc(Br)ccc2N1C (centres undefined) [METACLAZEPAM] | 3.52 (≈ 1.39 µg/mL) | –
COC(=O)C(c1ccccc1)C1CCCCN1 (centres undefined) [METHYLPHENIDATE] | 411 (≈ 95.9 µg/mL) | –
Cc1ncc2n1-c1ccc(Cl)cc1C(c1ccccc1F)=NC2 [MIDAZOLAM] | 392 (≈ 128 µg/mL) | solubility [8]: 0.055 mg/mL (≈ 169 µM)
CN1CCN2c3ncccc3Cc3ccccc3C2C1 (centres undefined) [MIRTAZAPINE] | > 500 | –
O=C(NCCN1CCOCC1)c1ccc(Cl)cc1 [MOCLOBEMIDE] | > 500 | –
NC(=O)C[S+]([O-])C(c1ccccc1)c1ccccc1 (centres undefined) [MODAFINIL] | > 500 | –
O=C1CC[C@@]2(O)[C@H]3Cc4ccc(O)c5c4[C@@]2(CCN3CC2CC2)[C@H]1O5 [NALTREXONE] | > 500 | –
CCc1nn(CCCN2CCN(c3cccc(Cl)c3)CC2)c(=O)n1CCOc1ccccc1 [NEFAZODONE] | 9.9 (≈ 4.65 µg/mL) | –
Cc1cc2c(s1)Nc1ccccc1N=C2N1CCN(C)CC1 [OLANZAPINE] | > 500 | –
NC(=O)N1c2ccccc2CC(=O)c2ccccc21 [OXCARBAZEPINE] | 245 (≈ 61.8 µg/mL) | solubility [2]: 0.308 mg/mL
Fc1ccc([C@@H]2CCNC[C@H]2COc2ccc3c(c2)OCO3)cc1 [PAROXETINE] | > 500 | –
CCCN1C[C@H](CSC)C[C@@H]2c3cccc4[nH]cc(c34)C[C@H]21 [PERGOLIDE] | 2.1 (≈ 0.66 µg/mL) | –
O=C1NC(=O)C(c2ccccc2)(c2ccccc2)N1 [PHENYTOIN] | 80 (≈ 20.2 µg/mL) | solubility [2]: 0.032 mg/mL
CCCN[C@H]1CCc2nc(N)sc2C1 [PRAMIPEXOLE] | – | solubility at 24 h, 600 µM ([1]; buffer): > 500 µM; solubility [9]: > 10000 µg/mL
NC(=O)CCC/N=C(\c1ccc(Cl)cc1)c1cc(F)ccc1O [PROGABIDE] | 55.2 (≈ 18.5 µg/mL) | –
CCC(=O)O[C@](Cc1ccccc1)(c1ccccc1)[C@H](C)CN(C)C [PROPOXYPHENE] | 250 (≈ 84.9 µg/mL) | –
Fc1ccccc1C1=NCC(=S)N(CC(F)(F)F)c2ccc(Cl)cc21 [QUAZEPAM] | 0.3 (≈ 0.116 µg/mL) | –
OCCOCCN1CCN(C2=Nc3ccccc3Sc3ccccc32)CC1 [QUETIAPINE] | – | solubility at 24 h, 600 µM ([1]; buffer): 310 µM (≈ 119 µg/mL)
CCOc1ccccc1OC(c1ccccc1)C1CNCCO1 (centres undefined) [REBOXETINE] | > 500 | –
CCN1CCC[C@H]1CNC(=O)c1c(OC)ccc(Br)c1OC [REMOXIPRIDE] | > 500 | –

Structure (SMILES) | solubility at 24 h, 600 µM ([1]; 0.1 M phosphate buffer) [µM] | further results
Cc1nc2n(c(=O)c1CCN1CCC(c3noc4cc(F)ccc34)CC1)CCCC2 [RISPERIDONE] | > 444 | –
CN(C)CCc1c[nH]c2ccc(Cn3cncn3)cc12 [RIZATRIPTAN] | > 500 | –
CCCN(CCC)CCc1cccc2c1CC(=O)N2 [ROPINIROLE] | > 500 | –
O=C1NCCN1CCN1CCC(c2cn(-c3ccc(F)cc3)c3ccc(Cl)cc23)CC1 [SERTINDOLE] | 18.1 (≈ 7.98 µg/mL) | –
CN[C@H]1CC[C@@H](c2ccc(Cl)c(Cl)c2)c2ccccc21 [SERTRALINE] | – | solubility ([1]; buffer, pH 7.4, 24 h, 600 µM): 350 µM (≈ 107 µg/mL)
CC(C)CC(N(C)C)C1(c2ccc(Cl)cc2)CCC1 (centres undefined) [SIBUTRAMINE] | 143 (≈ 40 µg/mL) | –
Nc1c2c(nc3ccccc13)CCCC2 [TACRINE] | – | solubility at 24 h, 600 µM ([1]; buffer): > 500 µM; solubility [2]: 0.217 mg/mL
C=CCN1CCc2nc(N)sc2CC1 [TALIPEXOLE] | 133 (≈ 27.8 µg/mL) | –
Cc1ccsc1C(=CCCN1CCC[C@@H](C(=O)O)C1)c1sccc1C [TIAGABINE] | > 500 | –
Cc1ccc(C(=O)c2cc(O)c(O)c([N+](=O)[O-])c2)cc1 [TOLCAPONE] | > 500 | solubility [3]: 0.115 mg/mL
CC1(C)O[C@@H]2[C@@H](CO[C@@]3(COS(N)(=O)=O)OC(C)(C)O[C@@H]23)O1 [TOPIRAMATE] | > 500 | solubility [2]: 9.8 mg/mL
COc1cccc(C2(O)CCCCC2CN(C)C)c1 (centres undefined) [TRAMADOL] | > 500 | –
Cc1nnc2n1-c1ccc(Cl)cc1C(c1ccccc1Cl)=NC2 [TRIAZOLAM] | 35.9 (≈ 12.3 µg/mL) | –
CN1[C@@H]2CC[C@H]1C[C@@H](OC(=O)c1c[nH]c3ccccc13)C2 [TROPISETRON] | > 500 | –
CCCC(CCC)C(=O)O [VALPROIC ACID] | > 500 | –
C=CC(N)CCC(=O)O (centres undefined) [VIGABATRIN] | > 500 | –
O=C1Cc2cc(CCN3CCN(c4nsc5ccccc45)CC3)c(Cl)cc2N1 [ZIPRASIDONE] | 1.05 (≈ 0.434 µg/mL) | solubility [9]: 0.08 µg/mL (≈ 0.194 µM)
CN(C)CCc1c[nH]c2ccc(C[C@H]3COC(=O)N3)cc12 [ZOLMITRIPTAN] | > 500 | –
Cc1ccc(-c2nc3ccc(C)cn3c2CC(=O)N(C)C)cc1 [ZOLPIDEM] | 260 (≈ 79.9 µg/mL) | solubility [3]: > 250 µM
NS(=O)(=O)Cc1noc2ccccc12 [ZONISAMIDE] | > 500 | –
CN1CCN(C(=O)OC2c3nccnc3C(=O)N2c2ccc(Cl)cn2)CC1 (centres undefined) [ZOPICLONE] | 219 (≈ 85.2 µg/mL) | –
